According to the supplement of paper PMC10307832:

Tests used:
Test in all cases: relative viability (nuclei count vs DMSO), 5 days (fraction); higher = more cells survive
NCI-H1755 = tested on: NCI-H1755
Outline: (§1)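 After 5 days of treatment, lung cancer cells in 1536-well plates were fixed and stained in a single step (final 0.05% Triton X-100, 1% formaldehyde, 1 ug/ml Hoechst) and their nuclei counted on 4× images. Treatment had been applied by pin tool the day after seeding as one drug alone or as a fixed anchor-drug dose with five library-drug doses (not always all listed) in √10 steps. Relative viability is the nuclei count of treated wells divided by that of vehicle wells, and values are medians of duplicate plates.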

COR-L 105 = tested on: COR-L 105
Outline: as §1

A-427 = tested on: A-427
Outline: as §1

NCI-H1395 = tested on: NCI-H1395
Outline: as §1

NCI-H2009 = tested on: NCI-H2009
Outline: as §1

SK-LU-1 = tested on: SK-LU-1
Outline: as §1

LCLC-103H = tested on: LCLC-103H
Outline: as §1

HARA = tested on: HARA
Outline: as §1

EMC-BAC-2 = tested on: EMC-BAC-2
Outline: as §1

HOP-62 = tested on: HOP-62
Outline: as §1

NCI-H1437 = tested on: NCI-H1437
Outline: as §1

NCI-H1915 = tested on: NCI-H1915
Outline: as §1

NCI-H1792 = tested on: NCI-H1792
Outline: as §1

NCI-H460 = tested on: NCI-H460
Outline: as §1

HCC-366 = tested on: HCC-366
Outline: as §1

SW 1573 = tested on: SW 1573
Outline: as §1

NCI-H2228 = tested on: NCI-H2228
Outline: as §1

CAL-12T = tested on: CAL-12T
Outline: as §1

HCC-827 = tested on: HCC-827
Outline: as §1

NCI-H522 = tested on: NCI-H522
Outline: as §1

NCI-H23 = tested on: NCI-H23
Outline: as §1

## Cc1sc2c(c1C)C(c1ccc(Cl)cc1)=N[C@@H](CC(=O)OC(C)(C)C)c1nnc(C)n1-2 [JQ1] + Nc1nc2[nH]cc(CCc3ccc(C(=O)N[C@@H](CCC(=O)O)C(=O)O)cc3)c2c(=O)[nH]1 [Pemetrexed] (partner 0.2 µM)
NCI-H1755; first compound 0.04 µM
  relative viability: 0.444
NCI-H1755; first compound 0.1265 µM
  relative viability: 0.444
NCI-H1755; first compound 0.4 µM
  relative viability: 0.387
NCI-H1755; first compound 1.265 µM
  relative viability: 0.323
NCI-H1755; first compound 4 µM
  relative viability: 0.324
COR-L 105; first compound 0.04 µM
  relative viability: 0.818
COR-L 105; first compound 0.1265 µM
  relative viability: 0.566
COR-L 105; first compound 0.4 µM
  relative viability: 0.742
COR-L 105; first compound 1.265 µM
  relative viability: 0.385
COR-L 105; first compound 4 µM
  relative viability: 0.413
A-427; first compound 0.04 µM
  relative viability: 0.988
A-427; first compound 0.1265 µM
  relative viability: 0.794
A-427; first compound 0.4 µM
  relative viability: 0.994
A-427; first compound 1.265 µM
  relative viability: 0.914
A-427; first compound 4 µM
  relative viability: 0.639
NCI-H1395; first compound 0.04 µM
  relative viability: 0.911
NCI-H1395; first compound 0.1265 µM
  relative viability: 0.737
NCI-H1395; first compound 0.4 µM
  relative viability: 0.797
NCI-H1395; first compound 1.265 µM
  relative viability: 0.496
NCI-H1395; first compound 4 µM
  relative viability: 0.343
NCI-H2009; first compound 0.04 µM
  relative viability: 0.958
NCI-H2009; first compound 0.1265 µM
  relative viability: 0.795
NCI-H2009; first compound 0.4 µM
  relative viability: 0.954
NCI-H2009; first compound 1.265 µM
  relative viability: 0.459
NCI-H2009; first compound 4 µM
  relative viability: 0.234
SK-LU-1; first compound 0.04 µM
  relative viability: 0.974
SK-LU-1; first compound 0.1265 µM
  relative viability: 0.766
SK-LU-1; first compound 0.4 µM
  relative viability: 0.607
SK-LU-1; first compound 1.265 µM
  relative viability: 0.278
SK-LU-1; first compound 4 µM
  relative viability: 0.181
LCLC-103H; first compound 0.04 µM
  relative viability: 0.44
LCLC-103H; first compound 0.1265 µM
  relative viability: 0.385
LCLC-103H; first compound 0.4 µM
  relative viability: 0.393
LCLC-103H; first compound 1.265 µM
  relative viability: 0.359
LCLC-103H; first compound 4 µM
  relative viability: 0.437
HARA; first compound 0.04 µM
  relative viability: 0.249
HARA; first compound 0.1265 µM
  relative viability: 0.271
HARA; first compound 0.4 µM
  relative viability: 0.235
HARA; first compound 1.265 µM
  relative viability: 0.217
HARA; first compound 4 µM
  relative viability: 0.185
EMC-BAC-2; first compound 0.04 µM
  relative viability: 0.437
EMC-BAC-2; first compound 0.1265 µM
  relative viability: 0.369
EMC-BAC-2; first compound 0.4 µM
  relative viability: 0.365
EMC-BAC-2; first compound 1.265 µM
  relative viability: 0.366
EMC-BAC-2; first compound 4 µM
  relative viability: 0.33
HOP-62; first compound 0.04 µM
  relative viability: 0.271
HOP-62; first compound 0.1265 µM
  relative viability: 0.266
HOP-62; first compound 0.4 µM
  relative viability: 0.26
HOP-62; first compound 1.265 µM
  relative viability: 0.137
HOP-62; first compound 4 µM
  relative viability: 0.106
NCI-H1437; first compound 0.04 µM
  relative viability: 0.303
NCI-H1437; first compound 0.1265 µM
  relative viability: 0.309
NCI-H1437; first compound 0.4 µM
  relative viability: 0.244
NCI-H1437; first compound 1.265 µM
  relative viability: 0.201
NCI-H1437; first compound 4 µM
  relative viability: 0.208
NCI-H1915; first compound 0.04 µM
  relative viability: 0.46
NCI-H1915; first compound 0.4 µM
  relative viability: 0.323
NCI-H1915; first compound 1.265 µM
  relative viability: 0.295
NCI-H1915; first compound 4 µM
  relative viability: 0.167
NCI-H1792; first compound 0.04 µM
  relative viability: 0.705
NCI-H1792; first compound 0.1265 µM
  relative viability: 0.699
NCI-H1792; first compound 0.4 µM
  relative viability: 0.434
NCI-H1792; first compound 1.265 µM
  relative viability: 0.15
NCI-H1792; first compound 4 µM
  relative viability: 0.0524
NCI-H460; first compound 0.04 µM
  relative viability: 0.0603
NCI-H460; first compound 0.1265 µM
  relative viability: 0.0567
NCI-H460; first compound 0.4 µM
  relative viability: 0.0624
NCI-H460; first compound 1.265 µM
  relative viability: 0.0611
NCI-H460; first compound 4 µM
  relative viability: 0.07
HCC-366; first compound 0.04 µM
  relative viability: 0.16
HCC-366; first compound 0.4 µM
  relative viability: 0.136
HCC-366; first compound 1.265 µM
  relative viability: 0.13
HCC-366; first compound 4 µM
  relative viability: 0.104
SW 1573; first compound 0.04 µM
  relative viability: 0.826
SW 1573; first compound 0.1265 µM
  relative viability: 0.789
SW 1573; first compound 0.4 µM
  relative viability: 0.598
SW 1573; first compound 1.265 µM
  relative viability: 0.398
SW 1573; first compound 4 µM
  relative viability: 0.295
NCI-H2228; first compound 0.04 µM
  relative viability: 0.362
NCI-H2228; first compound 0.1265 µM
  relative viability: 0.314
NCI-H2228; first compound 0.4 µM
  relative viability: 0.358
NCI-H2228; first compound 1.265 µM
  relative viability: 0.312
NCI-H2228; first compound 4 µM
  relative viability: 0.184
CAL-12T; first compound 0.04 µM
  relative viability: 1.22
CAL-12T; first compound 0.1265 µM
  relative viability: 1.18
CAL-12T; first compound 0.4 µM
  relative viability: 1.08
CAL-12T; first compound 1.265 µM
  relative viability: 0.465
CAL-12T; first compound 4 µM
  relative viability: 0.249
HCC-827; first compound 0.04 µM
  relative viability: 0.262
HCC-827; first compound 0.1265 µM
  relative viability: 0.255
HCC-827; first compound 1.265 µM
  relative viability: 0.211
HCC-827; first compound 4 µM
  relative viability: 0.247
NCI-H522; first compound 0.04 µM
  relative viability: 0.929
NCI-H522; first compound 0.1265 µM
  relative viability: 0.877
NCI-H522; first compound 0.4 µM
  relative viability: 0.54
NCI-H522; first compound 1.265 µM
  relative viability: 0.59
NCI-H522; first compound 4 µM
  relative viability: 0.444
NCI-H23; first compound 0.04 µM
  relative viability: 0.677
NCI-H23; first compound 0.1265 µM
  relative viability: 0.67
NCI-H23; first compound 0.4 µM
  relative viability: 0.41
NCI-H23; first compound 1.265 µM
  relative viability: 0.208
NCI-H23; first compound 4 µM
  relative viability: 0.171
